# According to patent US7875638B2, “Synthesis of epothilones, intermediates thereto, analogues and uses thereof” (Sloan-Kettering Institute for Cancer Research, priority 2002, dated 2011):
# “And” between values parts separate entries of the source, which are not always exact repeats. Identical values can stand only once.
# Columns and labels:
# [1] = tested on: human T-cell lymphoblastic leukemia CCRF-CEM/Taxol xenograft; test: CCRF-CEM/Taxol xenograft in nude mice; type: in vivo
# [2] = tested on: paclitaxel resistant human lung carcinoma A549/Taxol xenograft; conditions: 20 mg/kg
# [3] = tested on: human colon carcinoma HCT-116 xenograft; conditions: 96 h
compound,measurement,setting,value
"C/C(=C\c1csc(C)n1)[C@@H]1C/C=C(/C(F)(F)F)C/C=C/[C@H](C)[C@H](O)[C@@H](C)C(=O)C(C)(C)[C@@H](O)CC(=O)O1 [Compound 29, 26-trifluoro-trans-9,10-dehydro-12,13-desoxyepothilone B]",Final tumor suppression on D34,[1]; 15 mg/kg,98.8%
same,Tumor disappearance (mice),"[1]; 15 mg/kg, 6 hr-i.v. infusion, Q2Dx7 then Q2Dx5",1 out of 4
same,Tumor disappearance (mice),"[1]; 15 mg/kg, 6 hr-i.v. infusion, Q2Dx7 then Q2Dx5, listed as 26-F3-9,10-deH-dEpo B",1/3
same,Tumor disappearance (mice),"[1]; 15 mg/kg, 6 hr-i.v. infusion, Q2Dx7 then Q2Dx5, listed as Fludelone",1/3
same,Tumor disappearance (mice),"[1]; 30 mg/kg Q2Dx7, 6 hr-i.v. infusion (first cycle)",2 out of 4
same,Tumor disappearance (mice),"[1]; 30 mg/kg, 6 hr-i.v. infusion, Q2Dx7 then Q2Dx5, listed as 26-F3-9,10-deH-dEpo B",¾
same,Tumor disappearance (mice),"[1]; 30 mg/kg, 6 hr-i.v. infusion, Q2Dx7 then Q2Dx5, listed as Fludelone",3 out of 4 and 3/4
same,Final tumor suppression,"[1]; 30 mg/kg, Q2Dx7 then Q2Dx5",99.8%
same,"Tumor reduction, % of the pretreatment control",[2],24.4%
same,Cell kill,[3],> 11.6 log
